A melting point compilation (Tetko et al.; mined from patent text by program, amines drawn as free bases though some values may be those of a salt)

SMILES	melting point [°C]
CC(=O)NCCC1Cc2c(C)c(OCc3ccccc3)c(C)c(C)c2O1 (racemic)	138 to 139
CCOC(=O)C(C)(C)Oc1ccc(-c2ccc(CCNC(=O)c3ccc(C)cc3)cc2)cc1	214
COC1=C(OC)C(=O)C2=C(CCC(CCOc3ccc(F)cc3)CC2)C1=O	91 to 93
O=C1CCCCN1Cc1ccc(CCn2cnc3cc(-c4ccc(F)cc4)sc3c2=O)cc1	216 to 217
COc1cccc(CNC(=O)c2cc3c(=O)n(Cc4ccc([N+](=O)[O-])nc4)c(=O)n(C)c3s2)c1	213 to 215
CCOC(=O)Cc1ccccc1Oc1ccc(C)cc1	75
CC1(C)C(=O)N(Cl)C(C)(C)C(=O)N1Cl	176 to 178
COC(=O)C1(CC(CCCl)=C(C)C)C(=O)C=C(OC(C)C)CC1C (stereo not given)	76 to 77
CN(C)Cc1nnc2n1-c1ccc(Cl)cc1C(c1ccccc1Cl)=NC2	199 to 201
O=S(=O)(Nc1cccc(CCOCc2csc(-c3ccccc3)n2)c1)C(F)(F)F	112 to 113
CNC(=O)N1CC(Oc2cccc(C(F)(F)F)c2)C1	145 to 147
CC(C)(C)OC(=O)n1ccc2cc([N+](=O)[O-])ccc21	135 to 137
S=C1NCCSc2ccsc21	138 to 139
CC1=CC(c2cccc(Cl)c2Cl)C(c2nnco2)=C(C)N1 (stereo not given)	235
Cc1c(-c2ccc3cn[nH]c3c2)cc(Nc2ccc(N3CCOCC3)cn2)c2nccn12	160 to 164
COC(=O)c1cc(Cl)c(Cl)c(C2=NOCC2)c1C	74 to 76
C=CCOc1cc(Br)ccc1C(=O)OC	62
CSC(=C[N+](=O)[O-])NC(C)C(C)(C)C (stereo not given)	69
COCc1nc2ncccc2n1Cc1ccc(C(=O)N(C(C)C)C2CCCCC2)cc1OC	117 to 118
CCN(CCO)c1ccc(I)cc1	53 to 54
O=C(NC(=O)c1c(Cl)cccc1Cl)Nc1ccc(-c2ccccc2)cn1	221 to 231
CCC1(CC(=O)OC2OC(=O)c3ccccc32)OCCc2c1[nH]c1cc(OC(F)(F)F)ccc21 (stereo not given)	150
O=C1COC(C#Cc2ccccc2)(C(F)(F)F)c2cc(Cl)ccc2N1 (stereo not given)	190 to 191
CCSc1ncccc1C(=O)N1CCC(=O)c2ccc(Cl)cc21	120 to 123
O=C(O)CON=C(c1ccccc1)c1cc2ccncc2[nH]1	68 to 73
Cn1c(=O)c2c(N)ncnc2n(C)c1=O	> 300
O=C(CCNNC(=O)c1ccccc1)OCc1ccccc1	65

SMILES	melting point [°C]
CCCC1=C(C(=O)OCC)C(c2c(F)cccc2F)c2c[nH]nc2N1 (stereo not given)	185
NS(=O)(=O)c1ccc(-c2ccco2)cc1	202 to 203
CCNC(=O)OC1CC(C)(C)N(OC(=O)NCC)C(C)(C)C1	149 to 151
NC(=O)c1cc(I)cc(I)c1O	206
CC1(OCc2ccccc2F)COC(c2ccco2)OC1 (stereo not given)	67.5 to 69
CC(C)C1COC(c2ccccc2CO)=N1 (stereo not given)	62 to 72
CCCCCc1c(C(C)C)nc(C(C)C)c(CO)c1-c1ccc(OC)cc1	47 to 49
O=C(O)c1cc(-c2ccc(C(F)(F)F)cc2)nc(C(F)(F)F)c1	204 to 205
COC(=O)c1nc(-c2ccc(Cl)c(OC)c2F)cc(N)c1OC	114 to 118
CCN(CC)C(=O)c1cc(-c2ccc(C)cc2)nc2ccccc12	52
CC(C)(N)c1cc(Cl)c(Cl)c(Cl)c1	56 to 59
COc1cc(N)c2ncccc2c1OCc1ccc(Cl)cc1	122 to 123
CCCc1nc2c(N)nc3cc(OCCCNC(=O)c4cccnc4)ccc3c2n1CC(C)C	172 to 174
CC(C)c1c(C(=O)N[C@H](C)[C@](O)(Cn2cncn2)c2ccc(F)cc2F)cnn1-c1ccc(Cl)cc1	85 to 92
Cc1ccc(C(NC(c2ccccc2)c2ccccc2)P(O)O)cc1 (stereo not given)	208 to 209
Nc1cc(Cl)ccc1CO	104 to 105
CCCCCCCCCCCCCCCCCC(=O)Oc1cc(C=CC(=O)c2ccccc2)cc([N+](=O)[O-])c1O	112 to 118
O=C(O)c1conc1-c1ccc(F)cc1	170 to 174
O=C(O)c1cc(S(=O)C(F)(F)F)c(Cl)cc1Cl (stereo not given)	176 to 178
Cn1nnc2ccc(C(c3ccc(Cl)cc3)n3ccnc3)cc21 (stereo not given)	87.7
N[C@@]1(C(=O)O)C[C@H](NC(=O)Nc2cccc(Cl)c2)[C@H]2[C@H](C(=O)O)[C@H]21 (relative stereo)	> 250
Cc1c2ccccc2nc2ccc3nc4ccccc4c(C)c3c12	217 to 218
COc1cc(COc2cc(CCc3ccccn3)n(-c3ccccc3)n2)ccc1OCc1nc(-c2ccco2)oc1C	104 to 105
O=C(C=Cc1ccccc1)OCC#CC#CCOC(=O)C=Cc1ccccc1	102 to 104
Cc1ccc(Cl)cc1N1C(=O)CN=C1SCc1ccccc1	140 to 142
CC(C)(C)c1nn(-c2cc(F)c(C#N)cc2F)c(=O)o1	137
CCN(CC)C(=O)c1ccc2ccccc2c1-c1ccc(C(F)(F)F)cc1	111 to 112

SMILES	melting point [°C]
CC(C)(C)c1ccc(C2CCSC(c3c(F)cccc3F)=N2)cc1 (stereo not given)	91 to 91.5
COc1ccc2c(c1)Sc1cc(OC)ccc1N2	194 to 196
CN1C(=O)CN(c2cccc(I)c2)NC1=O	180
CC(=O)N1CC=C(c2cc(C)c(O)cc2C)CC1	220
COc1ccc(-c2cc(=S)n(C)c(=O)[nH]2)cc1OC	247 to 249
COc1cc2ncc(C#N)c(Nc3ccc(C)c(O)c3)c2cc1OC	222 to 224
O=C1CCc2cc(OCc3ccccc3)c(O)c([N+](=O)[O-])c21	252 to 254
O=C1C=C(c2ccc(Cl)cc2)C(=O)O1	144 to 145
S=C(NC1CCCCC1)N1CCN(c2cnccn2)CC1	176 to 178
CCCc1nc(C=NNC(=O)OCC)c[nH]1	180 to 182
C[C@@H](n1cnc2cc(-c3ccc(C#N)cc3)sc2c1=O)[C@](O)(Cn1cncn1)c1ccc(Cl)cc1Cl	133 to 138
COc1c(N2CC3CCC3(NC(=O)OC(C)(C)C)C2)c(F)cc2c(=O)c(C(=O)O)cn(C3CC3)c12 (stereo not given)	211 to 213
COc1cc(C(C)=O)ccc1OCCCCCCl	57 to 58
Fc1ccc(C(=C(c2ccccc2)C(F)(F)F)c2ccc(OCCBr)cc2)cc1	142 to 144
COc1ccc(CC[C@H](N)C(=O)O)cc1F	164 to 167
CN1CCCC1=NCCSc1cc2ccccc2[nH]1	175 to 177
CCCCSc1cc(C(=O)OCC#N)cc(S(N)(=O)=O)c1Oc1ccccc1	134 to 135
CC(=O)c1ccc(S(=O)(=O)NN2CCCCC2)cc1	137 to 139
CCOC(=O)[C@@H](CNC(=O)c1ccccc1)[C@H](O)C(F)(F)F	108 to 110
Clc1cccnc1-c1ccc2[nH]nc(Nc3cc[nH]n3)c2c1	218 to 220
CCCCc1c[nH]c(S(C)=O)c1[N+](=O)[O-] (stereo not given)	133 to 134
CCN1CCCC(NC(=O)c2ccccc2Nc2ccnc3c(Cl)cccc23)C1 (stereo not given)	173 to 175
N#Cc1[nH]c2ccc(Br)cc2c1-c1ccccc1	227 to 230
CCCN(Cc1cccc(C(=N)N)c1)C(=O)Nc1ccc(-c2ccccc2S(N)(=O)=O)cc1	166 to 167
CCOC(=O)c1ccc(C#CCc2ccc3c(c2)C(C)(C)CCC3(C)C)cc1	59 to 60
CCCCN1CCC2(CC1)OC(=O)c1ccccc12	60 to 62
Fc1ccc(C(c2ccc(F)cc2)c2cc(Cl)cc(Cl)c2S)cc1	95

SMILES	melting point [°C]
COc1ccc(-c2nc(C(F)(F)F)cn2-c2ccc(Br)cc2)cc1	140 to 141
CS(=O)(=O)Nc1ccc(F)c(C(=O)CBr)c1	110 to 113
CC(C)(C)OC(=O)N[C@H]1COc2ccccc2N(CC(=O)OCc2ccccc2)C1=O	122 to 124
COc1ccc(C(NC(C)c2cc(F)cc(F)c2)c2cc(N)ccc2OC)cc1 (stereo not given)	105 to 106
CCOC(=O)C(=CNc1c(C#N)cnn1-c1ccc(Cl)c(Cl)c1Cl)C(=O)OCC	157 to 158
CCCN(SCNC(=O)ON=C(C)SC)P(=S)(OCC)OCC	68 to 69
COc1ccc(CNc2nc(N3CCn4ccnc4C3)ncc2C(=O)NCC2CN(C)CCO2)cc1Cl (stereo not given)	132 to 134
CN1Cc2ccccc2C(OCC(O)Cn2ccnc2)c2c1nc1ccc(Br)cc1c2Cl (stereo not given)	175 to 177
Cn1c(=O)oc2cc(CCO)cnc21	142 to 144
CCCCCCCCCCCCCCCCCCNC(=O)c1ccc(O)cc1	105
COc1ccc(N2CCOCC2)c2sc(-c3nc4c([nH]3)CCN(CC(N)=O)CC4)nc12	299 to 302
CCOCc1nc2c(N)nc3cc(OCCN4CCOCC4)ccc3c2n1CC(C)(C)O	161 to 163
CC#CCOc1ccc(S(=O)(=O)N(C)c2c(C(=O)OCC)cnc3onc(C)c23)cc1	85 to 90
Cc1cccc(Cl)c1N1C(=O)CON(C)C1=S	176 to 178
CON=C(C#N)c1ccccc1S(N)(=O)=O	82 to 90
Cc1cc2c(NCc3ccc4c(c3)OCO4)nc(Cl)nc2s1	162
O=C1N[C@@H](Cc2ccccc2)C(=O)N/C1=C\c1ccccc1	275 to 276
O=C(c1ccccc1)c1nc(Br)c2n1CCC2C(=O)O (stereo not given)	190 to 192
CN(Cc1ccccc1)C(=O)Nc1cc(C(C)(C)C)on1	107 to 108
Nc1ncccc1OCc1c(F)ccc(F)c1F	108 to 110
Cc1cc(C)c(CC(=O)c2ccc(C(C)C)c(OS(N)(=O)=O)c2C(C)C)c(C)c1	159 to 161
COc1cc(S(=O)(=O)c2ccccc2)ccc1[N+](=O)[O-]	128 to 130
Cc1oc(-c2ccccc2)nc1COc1ccc(CCOS(C)(=O)=O)cc1	66 to 67
C=C(C(=O)c1ccc(C(=O)O)cc1)c1cc(-c2cccs2)ccc1OC	> 250
